The target in assay [1] is T1, Full length human CDC7 protein co-expressed with DBF4 (Homo sapiens, UniProt O00311).
T1 construct: Full length human CDC7 protein co-expressed with DBF4; purchased SignalChem (China)
Description: CDC7 Kinase Biochemical Assay (ADP-Glo, PDKtide substrate). Particulars: 0.1 nM CDC7/DBF4, 1 μM ATP, 10 μM PDKtide, 4 h reaction. Here is the method:
CDC7 Kinase Biochemical Assay PROTOCOL:
Full length human CDC7 protein co-expressed with DBF4 was purchased from SignalChem (China). CDC7 kinase activity was determined with PDKtide (SignalChem) as a substrate and by measuring ADP production using the ADP-Glo™ Kinase Assay kit (Promega) following the manufacturer's instructions. The kinase reaction was performed using the following conditions: Buffer: 40 mM Tris pH 7.5, 20 mM MgCl2, 0.1 mg/mL BSA and 50 μM DTT. Final reaction mix contained 0.1 nM CDC7/DBF4, 1 μM ATP and 10 μM PDKtide. The kinase reaction time was 4 h. The ADP-Glo signal was measured using an EnVision plate reader (PerkinELmer).
Percent inhibition of CDC7 kinase activity was calculated based on the following formula:
[formula] • SSample: the signal of compounds • SHigh Ctrl: the signal of high control (DMSO) • SLow Ctrl: the signal of low control (positive control CDC7 inhibitor)
For orientation: In ADP-Glo the light output rises with the ADP produced.

Assay [2] has as its system phosphorylation of MCM2 S53 in colo205 cells. Description: Phosphorylated MCM2 MSD Electrochemiluminescence Assay. It is filed as cell-based. Particulars: Homo sapiens, COLO 205, 20 h incubation, read-out: pMCM2-S53 MSD Colo205 IC50. As for the experimental part: Phosphorylated MCM2 MSD Electrochemiluminescence Assay
The effect of CDC7 inhibitors on cellular phosphorylation of the CDC7 substrate MCM2 was determined using the following protocol:
A total of 40,000 colo205 cells in 100 μL culture medium (1640 medium+10% Fetal bovine serum+1% Penicillin-Streptomycin) were plated in 96-well cell culture plates and allowed to attach for 6 hours. 3-fold serial dilutions of test compounds were prepared in completed PBS at 25× final concentration and 4 μL of each were added to the cells and incubated for 20 hours at 37° C., 5% CO2. Each concentration was tested in duplicate. After the 20 h incubation, cells were washed with 150 μL PBS and lysed with 40 μL MSD lysis buffer (obtained from Meso Scale Diagnostics) supplied with 1× complete ULTRA cocktail inhibitor (obtained from Roche). To detect phosphorylation of MCM2 S53, 30 μL of capture antibody solution (obtained from Abnova, catalog number H00004171-M01, 1:500) was added to each well of MULTI-ARRAY 96-well High Bind Plate, and incubated overnight. The antibody solution was removed, wells blocked with BSA solution and plates washed, followed by addition of 30 μl of cell lysate per well. After 2 h incubation, plates were washed. 30 μL of 1× detection antibody solution (obtained from Abcam, catalog number ab109133, 1:1000) was then added to each well and incubate for 1 hour. Plates were washed and 30 μL of 1× secondary antibody solution (obtained from MSD, catalog number R32AB-1, 1:5000) was added to each well and incubate for 1 hour. Plates were washed and 150 μL of 1× Read Buffer T was added to each well of the MSD plate. The electrochemiluminescence signal was measured on a MESO SECTOR 5600 plate reader. The percentage of remaining phosphorylated MCM2 signal was calculated following the equation below.
[formula] • HC (high control): Cells treated with DMSO • Cpds: Cells treated with test compounds • LC (low control): Cells treated with positive control CDC7 inhibitor

This passage reports IC50 results from US20240199634A1, “CYCLIC COMPOUNDS AND METHODS OF USING SAME” (SCHRÖDINGER, INC., priority 2021, published 2024).

T1 sequence (O00311 whole entry): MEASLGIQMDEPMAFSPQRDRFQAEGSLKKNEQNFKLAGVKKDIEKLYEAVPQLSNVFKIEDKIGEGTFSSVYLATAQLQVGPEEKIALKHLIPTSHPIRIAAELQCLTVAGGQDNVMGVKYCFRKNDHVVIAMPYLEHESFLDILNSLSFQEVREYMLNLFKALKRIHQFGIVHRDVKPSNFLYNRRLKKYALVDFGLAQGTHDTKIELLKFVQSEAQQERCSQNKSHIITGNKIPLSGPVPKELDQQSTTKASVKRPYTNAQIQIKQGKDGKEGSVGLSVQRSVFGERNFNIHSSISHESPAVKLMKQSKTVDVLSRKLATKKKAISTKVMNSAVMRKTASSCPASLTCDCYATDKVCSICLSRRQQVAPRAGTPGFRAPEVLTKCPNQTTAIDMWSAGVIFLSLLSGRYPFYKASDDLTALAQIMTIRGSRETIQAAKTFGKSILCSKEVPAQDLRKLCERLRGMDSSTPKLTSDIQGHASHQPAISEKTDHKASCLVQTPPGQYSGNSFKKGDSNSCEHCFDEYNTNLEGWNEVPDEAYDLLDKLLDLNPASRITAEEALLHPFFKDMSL
T1 sequence (Q9UBU7 whole entry partner): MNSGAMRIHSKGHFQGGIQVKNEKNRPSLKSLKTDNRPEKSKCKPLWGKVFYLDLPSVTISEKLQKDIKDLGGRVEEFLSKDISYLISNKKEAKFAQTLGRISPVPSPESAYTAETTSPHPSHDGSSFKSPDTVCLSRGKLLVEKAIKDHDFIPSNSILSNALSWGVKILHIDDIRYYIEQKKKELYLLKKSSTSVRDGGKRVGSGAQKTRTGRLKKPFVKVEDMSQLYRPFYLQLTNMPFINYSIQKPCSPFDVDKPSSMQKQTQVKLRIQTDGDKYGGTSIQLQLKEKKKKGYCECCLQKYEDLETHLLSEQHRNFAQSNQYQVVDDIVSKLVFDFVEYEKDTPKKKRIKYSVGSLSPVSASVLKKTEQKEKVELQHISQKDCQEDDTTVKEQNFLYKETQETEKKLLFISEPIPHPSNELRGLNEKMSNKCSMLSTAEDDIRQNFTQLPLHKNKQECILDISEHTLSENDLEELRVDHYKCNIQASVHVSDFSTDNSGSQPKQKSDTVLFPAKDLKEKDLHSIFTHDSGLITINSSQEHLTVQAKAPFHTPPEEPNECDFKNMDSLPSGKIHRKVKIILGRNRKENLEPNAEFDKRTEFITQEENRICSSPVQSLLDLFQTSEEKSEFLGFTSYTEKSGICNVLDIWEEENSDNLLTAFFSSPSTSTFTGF

For orientation: IC50 means the point on the concentration scale where inhibition reaches its midpoint. On to `CC(C)(C)[C@@]1(O)COCc2c1[nH]c(=O)c1sc(-c3ccncc3)cc21` (single isomer, unassigned) [Compound 22], for which the 50% inhibitory concentration (IC50) is at most 1 nM in assay [1] and at most 5 nM in assay [2].

As to `CC1(C)COCc2c1[nH]c(=O)c1sc(-c3cn[nH]c3)cc21` [Compound 58, 4,4-dimethyl-8-(1H-pyrazol-4-yl)-1,3,4,5-tetrahydro-6H-pyrano[4,3-b]thieno[3,2-d]pyridin-6-one], the IC50 is 1 to 10 nM in assay [1] and over 50 nM in assay [2].

Turning to `CC1(O)CCCc2c1[nH]c(=O)c1sc(-c3cn[nH]c3)cc21` (single isomer, unassigned) [Compound 41], the IC50 in assay [1] was 1 to 10 nM; in assay [2], over 50 nM.

Take `Cc1cnccc1-c1cc2c3c([nH]c(=O)c2s1)C(O)(C(C)(C)C)COC3` (single isomer, unassigned) [Compound 69]: the IC50 in assay [1] was at most 1 nM; in assay [2] it was 5 to 20 nM.

As to `CC(C)C1(O)COCc2c1[nH]c(=O)c1sc(-c3c[nH]nc3F)cc21` (single isomer, unassigned) [Compound 27], the IC50 in assay [1] was at most 1 nM; in assay [2], at most 5 nM.

Regarding `O=c1[nH]c2c(c3cc(-c4cn[nH]c4)sc13)C1CCC2(O)CC1` [Compound 8, 6-hydroxy-2-(1H-pyrazol-4-yl)-6,7,8,9-tetrahydro-6,9-ethanothieno[2,3-c]quinolin-4(5H)-one], the values for the IC50 in assay [1] and in assay [2] were at most 1 nM and 20 to 50 nM, respectively.

As for `CC(C)C1(O)COCc2c1[nH]c(=O)c1sc(-c3ccns3)cc21` (single isomer, unassigned) [Compound 46], the IC50 is at most 1 nM in assay [1] and 5 to 20 nM in assay [2].

`CC(C)C1(O)COCc2c1[nH]c(=O)c1sc(-c3ccncc3)cc21` (single isomer, unassigned) [Compound 44]: the IC50 in assay [1] was at most 1 nM; in assay [2] it was 5 to 20 nM.

For `CC(C)(C)C1(O)CNCc2c1[nH]c(=O)c1sc(-c3cn[nH]c3)cc21` (stereo not shown) [Compound 93, 4-(tert-butyl)-4-hydroxy-8-(1H-pyrazol-4-yl)-1,3,4,5-tetrahydrothieno[2,3-c][1,6]naphthyridin-6(2H)-one], the IC50 in assay [1] was at most 1 nM; in assay [2], 20 to 50 nM.

As to `CC(C)C1(O)COCc2c1[nH]c(=O)c1sc(-c3cn[nH]c3)cc21` (single isomer, unassigned) [Compound 16], the IC50 in assay [1] was at most 1 nM; in assay [2], at most 5 nM.

`Cc1n[nH]cc1-c1cc2c3c([nH]c(=O)c2s1)C(O)(C(C)(C)C)COC3` (single isomer, unassigned) [Compound 91]: the values for the IC50 in assay [1] and in assay [2] were over 10 nM and at most 5 nM, respectively.

As to `O=c1[nH]c2c(c3cc(-c4cn[nH]c4)sc13)COCC2(O)C(F)F` (single isomer, unassigned) [Compound 42], the IC50 in assay [1] was at most 1 nM; in assay [2], 20 to 50 nM.

In the case of `COC12CCC(CC1)c1c2[nH]c(=O)c2sc(-c3cn[nH]c3)cc12` [Compound 7, 6-methoxy-2-(1H-pyrazol-4-yl)-6,7,8,9-tetrahydro-6,9-ethanothieno[2,3-c]quinolin-4(5H)-one], the values for the IC50 in assay [1] and in assay [2] were at most 1 nM and 20 to 50 nM, respectively.

On to `CCC1(O)CC(F)(F)Cc2c1[nH]c(=O)c1sc(-c3cn[nH]c3)cc21` (single isomer, unassigned) [Compound 51], for which the IC50 in assay [1] was at most 1 nM; in assay [2] it was at most 5 nM.

For the compound `CC(C)(C)[C@@]1(O)COCc2c1[nH]c(=O)c1sc(N3CCOCC3)cc21` [Compound 85, (S)-4-(tert-butyl)-4-hydroxy-8-morpholino-1,3,4,5-tetrahydro-6H-pyrano[4,3-b]thieno[3,2-d]pyridin-6-one], the IC50 in assay [1] is at most 1 nM; in assay [2] it was over 50 nM.

Compound `CC[C@@H](C)[C@@]1(O)COCc2c1[nH]c(=O)c1sc(-c3cn[nH]c3)cc21` (single isomer, unassigned) [Compound 76] had an IC50 in assay [1] of at most 1 nM.

Regarding `O=c1[nH]c2c(c3cc(-c4ccncc4)sc13)C1CCC2(O)CC1` [Compound 9, 6-hydroxy-2-(pyridin-4-yl)-6,7,8,9-tetrahydro-6,9-ethanothieno[2,3-c]quinolin-4(5H)-one], in assay [1], the IC50 was at most 1 nM.

As to `CC(C)C1(O)COCc2c1[nH]c(=O)c1sc(-c3cn[nH]c3)cc21` (single isomer, unassigned) [Compound 17], in assay [1], the IC50 is 1 to 10 nM.

Regarding `CCC(C)(C)C1(O)COCc2c1[nH]c(=O)c1sc(-c3cn[nH]c3)cc21` (single isomer, unassigned) [Compound 81], the IC50 in assay [1] is at most 1 nM.

As for `CN(C)C1(C)COCc2c1[nH]c(=O)c1sc(-c3cn[nH]c3)cc21` (single isomer, unassigned) [Compound 83], the IC50 in assay [1] lay in the range of 1 to 10 nM.

The compound `O=c1[nH]c2c(c3cc(-c4cn[nH]c4)sc13)CC(F)(F)C[C@@H]2N1CCC1` (single isomer, unassigned) [Compound 13] returned an IC50 in assay [1] of at most 1 nM.

In the case of `O=c1[nH]c2c(c3cc(-c4cn[nH]c4)sc13)CCCC2(O)C(F)F` (single isomer, unassigned) [Compound 37], the values for the IC50 in assay [1] and in assay [2] were at most 1 nM and 5 to 20 nM, respectively.

Turning to `CC(F)(F)C1(O)COCc2c1[nH]c(=O)c1sc(-c3cn[nH]c3)cc21` (single isomer, unassigned) [Compound 96], in assay [1], the IC50 was at most 1 nM.

Turning to `Cc1n[nH]cc1-c1cc2c3c([nH]c(=O)c2s1)C(O)(C(C)(C)C)COC3` (single isomer, unassigned) [Compound 92], the IC50 in assay [1] is at most 1 nM.

`CC(C)(C)[C@]1(O)COCc2c1[nH]c(=O)c1sc(-c3cn[nH]c3)cc21` (single isomer, unassigned) [Compound 21]: the IC50 in assay [1] lay in the range of 1 to 10 nM.

In the case of `O=c1[nH]c2c(c3cc(-c4cn[nH]c4)sc13)CCC[C@@H]2O` (single isomer, unassigned) [Compound 3], the half-inhibitory concentration (IC50) in assay [1] lay within 1 to 10 nM.

`Cn1nccc1-c1cc2c3c([nH]c(=O)c2s1)C(O)(C(C)(C)C)COC3` (single isomer, unassigned) [Compound 90] displayed an IC50 in assay [1] of over 10 nM.

With `Cc1cnccc1-c1cc2c3c([nH]c(=O)c2s1)C(O)(C(C)(C)C)COC3` (single isomer, unassigned) [Compound 70], the IC50 in assay [1] was over 10 nM.

`CC(C)(C)C1(O)COCc2c1[nH]c(=O)c1sc(-c3ncncc3Cl)cc21` (single isomer, unassigned) [Compound 64] gave a half-maximal inhibitory concentration (IC50) in assay [1] of 1 to 10 nM.

Take `O=c1[nH]c2c(c3cc(-c4cn[nH]c4)sc13)CCC[C@H]2O` (single isomer, unassigned) [Compound 4]: in assay [1], the IC50 is at most 1 nM.

`CC(C)C1(O)CCCc2c1[nH]c(=O)c1sc(-c3cn[nH]c3)cc21` (single isomer, unassigned) [Compound 88] registered a 50% inhibitory concentration (IC50) in assay [1] of 1 to 10 nM.

`CC1(O)CC(F)(F)Cc2c1[nH]c(=O)c1sc(-c3cn[nH]c3)cc21` (single isomer, unassigned) [Compound 55]: the IC50 in assay [1] lay in the range of 1 to 10 nM.

In the case of `CCC1(O)CC(F)(F)Cc2c1[nH]c(=O)c1sc(-c3cn[nH]c3)cc21` (single isomer, unassigned) [Compound 50], in assay [1], the IC50 lay within 1 to 10 nM.

As to `O=c1[nH]c2c(c3cc(-c4cn[nH]c4)sc13)CCCC2(O)C(F)F` (single isomer, unassigned) [Compound 36], the IC50 in assay [1] is over 10 nM.

Consider `Cc1n[nH]cc1-c1cc2c3c([nH]c(=O)c2s1)C(O)(C(F)(F)F)COC3` (single isomer, unassigned) [Compound 33], for which the half-inhibitory concentration (IC50) in assay [1] lay in the range of 1 to 10 nM.

Regarding `CC#CC1(O)COCc2c1[nH]c(=O)c1sc(-c3cn[nH]c3)cc21` (single isomer, unassigned) [Compound 73], the IC50 in assay [1] is over 10 nM.

`C[C@]1(CO)CC(F)(F)Cc2c1[nH]c(=O)c1sc(-c3cn[nH]c3)cc21` (single isomer, unassigned) [Compound 14] registered an IC50 in assay [1] of 1 to 10 nM.

The compound `O=c1[nH]c2c(c3cc(-c4cn[nH]c4)sc13)COCC2(O)C(F)(F)F` (single isomer, unassigned) [Compound 28] showed an IC50 in assay [1] of at most 1 nM.

In turn, `CO[C@H]1COCc2c1[nH]c(=O)c1sc(-c3cn[nH]c3)cc21` (single isomer, unassigned) [Compound 10] yielded a 50% inhibitory concentration (IC50) in assay [1] of at most 1 nM.
